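Tested at 5 concentrations; 48 h exposure; 96-well plates; endpoints linearly interpolated, else capped at highest concentration. Abbreviation: GI50, concentration required for 50% inhibition of growth.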 Calls of active or inactive are those of the source. Cut-off read from the data, not from the text of the source: active = GI50 up to about 1.1 µM and inactive = higher.
Key:
Assay in all cases: DTP human tumour cell line panel, 48 h
786-0 = test system: 786-0
BT-549 = test system: BT-549
DU-145 = test system: DU-145
HCT-15 = test system: HCT-15
HL-60 = test system: HL-60
HOP-62 = test system: HOP-62
IGROV-1 = test system: IGROV-1
KM12 = test system: KM12
MOLT-4 = test system: MOLT-4
NCI-H23 = test system: NCI-H23
NCI-H460 = test system: NCI-H460
NCI-H522 = test system: NCI-H522
NCI/ADR-RES = test system: NCI/ADR-RES
OVCAR-3 = test system: OVCAR-3
RPMI-8226 = test system: RPMI-8226
SF-295 = test system: SF-295
SNB-19 = test system: SNB-19
UACC-62 = test system: UACC-62
UO-31 = test system: UO-31
RXF 393 = test system: RXF 393

CSc1nc(NC(C)C)c2c(n1)Sc1nc3ccccc3n1N=C2
GI50 (786-0): 4.23 µM (inactive) | GI50 (BT-549): 18.7 µM (inactive) | GI50 (DU-145): 12.7 µM (inactive) | GI50 (HCT-15): 36.8 µM | GI50 (HL-60): > 100 µM (inactive) | GI50 (HOP-62): 5.66 µM (inactive) | GI50 (IGROV-1): 16.9 µM (inactive) | GI50 (KM12): 16.5 µM (inactive) | GI50 (MOLT-4): 9.84 µM (inactive) | GI50 (NCI-H23): 11.7 µM (inactive) | GI50 (NCI-H460): 6.34 µM (inactive) | GI50 (NCI-H522): 22.9 µM (inactive) | GI50 (NCI/ADR-RES): 6.92 µM (inactive) | GI50 (OVCAR-3): 10.4 µM (inactive) | GI50 (RPMI-8226): 0.335 µM (active) | GI50 (SF-295): 6.03 µM (inactive) | GI50 (SNB-19): 7.57 µM (inactive) | GI50 (UACC-62): 6.62 µM (inactive) | GI50 (UO-31): 5.32 µM (inactive)

Oc1ccc(Br)cc1/C=N/c1c(NC2CCCCC2)oc2ccc(Br)cc12
GI50 (786-0): 37.8 µM (inactive) | GI50 (BT-549): 25.5 µM (inactive) | GI50 (DU-145): 60.3 µM (inactive) | GI50 (HCT-15): 25.1 µM | GI50 (HL-60): 5.53 µM (inactive) | GI50 (HOP-62): 68.4 µM (inactive) | GI50 (IGROV-1): 56.4 µM (inactive) | GI50 (KM12): 21 µM (inactive) | GI50 (MOLT-4): 7.21 µM (inactive) | GI50 (NCI-H23): 15.5 µM (inactive) | GI50 (NCI-H460): 50.5 µM (inactive) | GI50 (NCI/ADR-RES): 45.5 µM (inactive) | GI50 (OVCAR-3): 18.2 µM (inactive) | GI50 (RPMI-8226): 7.18 µM (inactive) | GI50 (RXF 393): 12.9 µM (inactive) | GI50 (SF-295): 47.4 µM (inactive) | GI50 (SNB-19): > 100 µM (inactive) | GI50 (UACC-62): 38.6 µM (inactive) | GI50 (UO-31): 31 µM (inactive)

CC(=O)/C(=C\n1c(=S)[nH]c2ccc([N+](=O)[O-])cc21)C(=O)Nc1ccccc1C
GI50 (786-0): > 100 µM (inactive) | GI50 (BT-549): 33.3 µM (inactive) | GI50 (DU-145): > 100 µM (inactive) | GI50 (HCT-15): > 100 µM | GI50 (HL-60): > 100 µM (inactive) | GI50 (HOP-62): > 100 µM (inactive) | GI50 (IGROV-1): > 100 µM (inactive) | GI50 (MOLT-4): > 100 µM (inactive) | GI50 (NCI-H23): > 100 µM (inactive) | GI50 (NCI-H460): > 100 µM (inactive) | GI50 (NCI-H522): > 100 µM (inactive) | GI50 (NCI/ADR-RES): > 100 µM (inactive) | GI50 (OVCAR-3): > 100 µM (inactive) | GI50 (RPMI-8226): > 100 µM (inactive) | GI50 (RXF 393): > 100 µM (inactive) | GI50 (SF-295): > 100 µM (inactive) | GI50 (UACC-62): > 100 µM (inactive)

COC(=O)[C@H](Cc1ccccc1)NC(=O)N(CCC#N)CCN(C(=O)N[C@@H](Cc1ccccc1)C(=O)OC)c1ccccc1
GI50 (786-0): 9.2 µM (inactive) | GI50 (BT-549): 49.3 µM (inactive) | GI50 (DU-145): 29.1 µM (inactive) | GI50 (HCT-15): 38.5 µM | GI50 (HOP-62): 41.1 µM (inactive) | GI50 (IGROV-1): 20.8 µM (inactive) | GI50 (KM12): 37.3 µM (inactive) | GI50 (MOLT-4): 16.6 µM (inactive) | GI50 (NCI-H23): 32.7 µM (inactive) | GI50 (NCI/ADR-RES): > 100 µM (inactive) | GI50 (OVCAR-3): 19.9 µM (inactive) | GI50 (RPMI-8226): 21 µM (inactive) | GI50 (RXF 393): 18.2 µM (inactive) | GI50 (SF-295): 33.8 µM (inactive) | GI50 (SNB-19): 49.5 µM (inactive) | GI50 (UACC-62): 3.34 µM (inactive) | GI50 (UO-31): 17.6 µM (inactive)

COc1ccc(CC2c3cc(OC)c(OC)c(OC)c3CC[N+]2(C)C)cc1Oc1ccc(CC2c3cc4c(c(OC)c3CCN2C)OCO4)cc1 (stereo not given)
GI50 (786-0): > 100 µM (inactive) | GI50 (BT-549): > 100 µM (inactive) | GI50 (DU-145): > 100 µM (inactive) | GI50 (HCT-15): > 100 µM | GI50 (HL-60): 35.5 µM (inactive) | GI50 (IGROV-1): > 100 µM (inactive) | GI50 (KM12): > 100 µM (inactive) | GI50 (MOLT-4): > 100 µM (inactive) | GI50 (NCI-H23): > 100 µM (inactive) | GI50 (NCI-H460): 92 µM (inactive) | GI50 (NCI-H522): 97.7 µM (inactive) | GI50 (NCI/ADR-RES): > 100 µM (inactive) | GI50 (OVCAR-3): > 100 µM (inactive) | GI50 (RXF 393): > 100 µM (inactive) | GI50 (SF-295): > 100 µM (inactive) | GI50 (SNB-19): > 100 µM (inactive) | GI50 (UACC-62): > 100 µM (inactive) | GI50 (UO-31): > 100 µM (inactive)

CCOC(=O)C1=C(C)N(c2ccc(Cl)cc2)C2(O)C=CC(O)=C3C(=O)c4ccccc4C(=O)C312 (stereo not given)
GI50 (786-0): 2.12 µM (inactive) | GI50 (BT-549): 10.6 µM (inactive) | GI50 (DU-145): 8.09 µM (inactive) | GI50 (HCT-15): 2.12 µM | GI50 (HL-60): 2.37 µM (inactive) | GI50 (HOP-62): 5.2 µM (inactive) | GI50 (IGROV-1): 3.94 µM (inactive) | GI50 (KM12): 6.97 µM (inactive) | GI50 (MOLT-4): 2.43 µM (inactive) | GI50 (NCI-H23): 10.1 µM (inactive) | GI50 (NCI-H460): 5.38 µM (inactive) | GI50 (NCI-H522): 2.21 µM (inactive) | GI50 (NCI/ADR-RES): 2.49 µM (inactive) | GI50 (OVCAR-3): 1.91 µM (inactive) | GI50 (RPMI-8226): 1.8 µM (inactive) | GI50 (SF-295): 6.93 µM (inactive) | GI50 (SNB-19): 12.9 µM (inactive) | GI50 (UACC-62): 3.44 µM (inactive) | GI50 (UO-31): 3.92 µM (inactive)

NC1c2c(Cl)sc(Cl)c2C(=O)C1O (stereo not given)
GI50 (786-0): 94.6 µM (inactive) | GI50 (BT-549): 15.6 µM (inactive) | GI50 (DU-145): > 100 µM (inactive) | GI50 (HCT-15): 16.5 µM | GI50 (HL-60): 15.4 µM (inactive) | GI50 (IGROV-1): 57.9 µM (inactive) | GI50 (KM12): > 100 µM (inactive) | GI50 (MOLT-4): 23 µM (inactive) | GI50 (NCI-H23): 15.6 µM (inactive) | GI50 (NCI-H460): 46 µM (inactive) | GI50 (NCI-H522): 18.2 µM (inactive) | GI50 (NCI/ADR-RES): 36.9 µM (inactive) | GI50 (OVCAR-3): 30.8 µM (inactive) | GI50 (RXF 393): 12.8 µM (inactive) | GI50 (SF-295): 32.6 µM (inactive) | GI50 (SNB-19): 41.3 µM (inactive) | GI50 (UACC-62): 17.7 µM (inactive) | GI50 (UO-31): 31.9 µM (inactive)

CC1OC(=O)C(C(C)C)NC(=O)C(C(C)C)OC(=O)C(C(C)C)NC(=O)C(C)OC(=O)C(C(C)C)NC(=O)C(C(C)C)OC(=O)C(C(C)C)NC(=O)C(C)OC(=O)C(C(C)C)NC(=O)C(C(C)C)OC(=O)C(C(C)C)NC1=O (stereo not given)
GI50 (786-0): < 0.0001 µM (active) | GI50 (BT-549): < 0.0001 µM (active) | GI50 (DU-145): 0.000102 µM (active) | GI50 (HCT-15): 0.0034 µM | GI50 (HL-60): 0.00275 µM (active) | GI50 (HOP-62): 0.0025 µM (active) | GI50 (IGROV-1): 0.00275 µM (active) | GI50 (KM12): 0.00272 µM (active) | GI50 (MOLT-4): 0.0025 µM (active) | GI50 (NCI-H23): 0.0025 µM (active) | GI50 (NCI-H460): 0.00279 µM (active) | GI50 (NCI/ADR-RES): 0.00728 µM (active) | GI50 (OVCAR-3): 0.0025 µM (active) | GI50 (RPMI-8226): 0.0025 µM (active) | GI50 (RXF 393): 0.00324 µM (active) | GI50 (SNB-19): 0.00349 µM (active) | GI50 (UACC-62): 0.0025 µM (active) | GI50 (UO-31): 0.00281 µM (active)
